Columns and labels:
[1] = tested on: L6; assay: Cytotoxicity in rat L6 cells assessed as reduction in cell viability incubated for 72 hrs by alamar blue dye based assay; conditions: L6, 72 h
[2] = tested on: Plasmodium falciparum; assay: Antiplasmodial activity against chloroquine and pyrimethamine resistant Plasmodium falciparum K1 assessed as reduction in [3H]-hypoxanthine incorporation incubated for 48 hrs by liquid scintillation counting method; type: functional, organism-based
[3] = Selectivity index, ratio of IC50 for rat L6 cells to IC50 for chloroquine and pyrimethamine resistant Plasmodium falciparum K1; type: toxicity; conditions: L6 cells versus Plasmodium falciparum K1, read-out: Ratio IC50
[4] = tested on: Plasmodium falciparum; assay: Antiplasmodial activity against chloroquine sensitive Plasmodium falciparum NF54 assessed as reduction in [3H]-hypoxanthine incorporation incubated for 48 hrs by liquid scintillation counting method; type: functional, organism-based

`O=C(O)C1CCC2(CC1)OOC1(O2)C2CC3CC(C2)CC1C3` (centres undefined) showed an IC50 [1] of 139000 nM, an IC50 [2] of 2.8 nM and a selectivity ratio [3] of 49600. It also gave an IC50 [4] of 6.5 nM.

In the case of `C[C@H]1[C@H](OC(=O)CCC(=O)NCCCN(CCCCCCN(CCCNC(=O)CCC(=O)O[C@@H]2O[C@@H]3O[C@@]4(C)CC[C@H]5[C@H](C)CC[C@@H]([C@H]2C)[C@@]35OO4)C(=O)CCC(=O)O[C@@H]2O[C@@H]3O[C@@]4(C)CC[C@H]5[C@H](C)CC[C@@H]([C@H]2C)[C@@]35OO4)C(=O)CCC(=O)O[C@@H]2O[C@@H]3O[C@@]4(C)CC[C@H]5[C@H](C)CC[C@@H]([C@H]2C)[C@@]35OO4)O[C@@H]2O[C@@]3(C)CC[C@H]4[C@H](C)CC[C@@H]1[C@@]24OO3`, the IC50 [1] is reported as 880 nM, the IC50 [2] is reported as 0.6 nM and the selectivity ratio [3] is reported as 1470. For the same compound, the IC50 [4] was 0.6 nM.

`C[C@H]1[C@H](OC(=O)CCC(=O)NCCCN(CCCCCCCN(CCCNC(=O)CCC(=O)O[C@@H]2O[C@@H]3O[C@@]4(C)CC[C@H]5[C@H](C)CC[C@@H]([C@H]2C)[C@@]35OO4)C(=O)CCC(=O)O[C@@H]2O[C@@H]3O[C@@]4(C)CC[C@H]5[C@H](C)CC[C@@H]([C@H]2C)[C@@]35OO4)C(=O)CCC(=O)O[C@@H]2O[C@@H]3O[C@@]4(C)CC[C@H]5[C@H](C)CC[C@@H]([C@H]2C)[C@@]35OO4)O[C@@H]2O[C@@]3(C)CC[C@H]4[C@H](C)CC[C@@H]1[C@@]24OO3` showed an IC50 [1] of 1240 nM, an IC50 [2] of 0.6 nM and a selectivity ratio [3] of 2070. It also gave an IC50 [4] of 0.8 nM.

With `O=C(NCCCN(CCCCCCCN(CCCNC(=O)C1CCC2(CC1)OOC1(O2)C2CC3CC(C2)CC1C3)C(=O)C1CCC2(CC1)OOC1(O2)C2CC3CC(C2)CC1C3)C(=O)C1CCC2(CC1)OOC1(O2)C2CC3CC(C2)CC1C3)C1CCC2(CC1)OOC1(O2)C2CC3CC(C2)CC1C3` (centres undefined) the IC50 [1] was over 71000 nM, the IC50 [2] was 76 nM and the selectivity ratio [3] was over 934. The IC50 [4] was 287 nM.

For `O=C(NCCCN(CCCCCCN(CCCNC(=O)C1CCC2(CC1)OOC1(O2)C2CC3CC(C2)CC1C3)C(=O)C1CCC2(CC1)OOC1(O2)C2CC3CC(C2)CC1C3)C(=O)C1CCC2(CC1)OOC1(O2)C2CC3CC(C2)CC1C3)C1CCC2(CC1)OOC1(O2)C2CC3CC(C2)CC1C3` (centres undefined), the IC50 [1] was 63200 nM, the IC50 [2] was 11 nM and the selectivity ratio [3] was 5740. For the same compound, the IC50 [4] was 22 nM.

In the case of `C[C@H]1[C@H](OC(=O)CCC(=O)NCCCN(CCCCCCCCCCN(CCCNC(=O)CCC(=O)O[C@@H]2O[C@@H]3O[C@@]4(C)CC[C@H]5[C@H](C)CC[C@@H]([C@H]2C)[C@@]35OO4)C(=O)OC(C)(C)C)C(=O)OC(C)(C)C)O[C@@H]2O[C@@]3(C)CC[C@H]4[C@H](C)CC[C@@H]1[C@@]24OO3`, the IC50 [1] is reported as 500 nM, the IC50 [2] is reported as 0.8 nM and the selectivity ratio [3] is reported as 625. The IC50 [4] was 0.8 nM.

Work on `O=C(NCCCN(CCCCCCCCN(CCCNC(=O)C1CCC2(CC1)OOC1(O2)C2CC3CC(C2)CC1C3)C(=O)C1CCC2(CC1)OOC1(O2)C2CC3CC(C2)CC1C3)C(=O)C1CCC2(CC1)OOC1(O2)C2CC3CC(C2)CC1C3)C1CCC2(CC1)OOC1(O2)C2CC3CC(C2)CC1C3` (centres undefined) yielded an IC50 [1] of 59200 nM, an IC50 [2] of 11 nM and a selectivity ratio [3] of 5380. It also gave an IC50 [4] of 26 nM.

With `O=C(NCCCN(CCCCN(CCCNC(=O)C1CCC2(CC1)OOC1(O2)C2CC3CC(C2)CC1C3)C(=O)C1CCC2(CC1)OOC1(O2)C2CC3CC(C2)CC1C3)C(=O)C1CCC2(CC1)OOC1(O2)C2CC3CC(C2)CC1C3)C1CCC2(CC1)OOC1(O2)C2CC3CC(C2)CC1C3` (centres undefined) the IC50 [1] was 50400 nM, the IC50 [2] was 6.2 nM and the selectivity ratio [3] was 8130. It also gave an IC50 [4] of 98 nM.

Compound `CC(C)(C)OC(=O)N(CCCCCCCCN(CCCNC(=O)C1CCC2(CC1)OOC1(O2)C2CC3CC(C2)CC1C3)C(=O)OC(C)(C)C)CCCNC(=O)C1CCC2(CC1)OOC1(O2)C2CC3CC(C2)CC1C3` (centres undefined) has an IC50 [1] of 57600 nM, an IC50 [2] of 59 nM and a selectivity ratio [3] of 976. For the same compound, the IC50 [4] was 79 nM.

With `C[C@H]1[C@H](OC(=O)CCC(=O)NCCCN(CCCCCCCN(CCCNC(=O)CCC(=O)O[C@@H]2O[C@@H]3O[C@@]4(C)CC[C@H]5[C@H](C)CC[C@@H]([C@H]2C)[C@@]35OO4)C(=O)OC(C)(C)C)C(=O)OC(C)(C)C)O[C@@H]2O[C@@]3(C)CC[C@H]4[C@H](C)CC[C@@H]1[C@@]24OO3` the IC50 [1] was 970 nM, the IC50 [2] was 0.8 nM and the selectivity ratio [3] was 1210. It also gave an IC50 [4] of 0.6 nM.

With `C[C@H]1[C@H](OC(=O)CCC(=O)NCCCN(CCCCCCCCN(CCCNC(=O)CCC(=O)O[C@@H]2O[C@@H]3O[C@@]4(C)CC[C@H]5[C@H](C)CC[C@@H]([C@H]2C)[C@@]35OO4)C(=O)OC(C)(C)C)C(=O)OC(C)(C)C)O[C@@H]2O[C@@]3(C)CC[C@H]4[C@H](C)CC[C@@H]1[C@@]24OO3` the IC50 [1] was 560 nM, the IC50 [2] was 0.8 nM and the selectivity ratio [3] was 700. It also gave an IC50 [4] of 0.7 nM.

Work on `O=C(NCCCN(CCCCCCCCCCN(CCCNC(=O)C1CCC2(CC1)OOC1(O2)C2CC3CC(C2)CC1C3)C(=O)C1CCC2(CC1)OOC1(O2)C2CC3CC(C2)CC1C3)C(=O)C1CCC2(CC1)OOC1(O2)C2CC3CC(C2)CC1C3)C1CCC2(CC1)OOC1(O2)C2CC3CC(C2)CC1C3` (centres undefined) yielded an IC50 [1] of over 69000 nM, an IC50 [2] of 30 nM and a selectivity ratio [3] of over 2300. It also gave an IC50 [4] of 88 nM.

Work on `C[C@H]1[C@H](OC(=O)CCC(=O)NCCCN(CCCCCCCCN(CCCNC(=O)CCC(=O)O[C@@H]2O[C@@H]3O[C@@]4(C)CC[C@H]5[C@H](C)CC[C@@H]([C@H]2C)[C@@]35OO4)C(=O)CCC(=O)O[C@@H]2O[C@@H]3O[C@@]4(C)CC[C@H]5[C@H](C)CC[C@@H]([C@H]2C)[C@@]35OO4)C(=O)CCC(=O)O[C@@H]2O[C@@H]3O[C@@]4(C)CC[C@H]5[C@H](C)CC[C@@H]([C@H]2C)[C@@]35OO4)O[C@@H]2O[C@@]3(C)CC[C@H]4[C@H](C)CC[C@@H]1[C@@]24OO3` yielded an IC50 [1] of 900 nM, an IC50 [2] of 0.6 nM and a selectivity ratio [3] of 1500. The IC50 [4] was 0.8 nM.

For `C[C@H]1[C@H](OC(=O)CCC(=O)NCCCN(CCCCCCCCCCN(CCCNC(=O)CCC(=O)O[C@@H]2O[C@@H]3O[C@@]4(C)CC[C@H]5[C@H](C)CC[C@@H]([C@H]2C)[C@@]35OO4)C(=O)CCC(=O)O[C@@H]2O[C@@H]3O[C@@]4(C)CC[C@H]5[C@H](C)CC[C@@H]([C@H]2C)[C@@]35OO4)C(=O)CCC(=O)O[C@@H]2O[C@@H]3O[C@@]4(C)CC[C@H]5[C@H](C)CC[C@@H]([C@H]2C)[C@@]35OO4)O[C@@H]2O[C@@]3(C)CC[C@H]4[C@H](C)CC[C@@H]1[C@@]24OO3`, the IC50 [1] was 490 nM, the IC50 [2] was 1.1 nM and the selectivity ratio [3] was 445. The IC50 [4] was 0.6 nM.

With `CC(C)(C)OC(=O)N(CCCCCCCCCCN(CCCNC(=O)C1CCC2(CC1)OOC1(O2)C2CC3CC(C2)CC1C3)C(=O)OC(C)(C)C)CCCNC(=O)C1CCC2(CC1)OOC1(O2)C2CC3CC(C2)CC1C3` (centres undefined) the IC50 [1] was 70900 nM, the IC50 [2] was 60 nM and the selectivity ratio [3] was 1180. The IC50 [4] was 97 nM.

Compound `C[C@H]1[C@H](OC(=O)CCC(=O)NCCCN(CCCCCCN(CCCNC(=O)CCC(=O)O[C@@H]2O[C@@H]3O[C@@]4(C)CC[C@H]5[C@H](C)CC[C@@H]([C@H]2C)[C@@]35OO4)C(=O)OC(C)(C)C)C(=O)OC(C)(C)C)O[C@@H]2O[C@@]3(C)CC[C@H]4[C@H](C)CC[C@@H]1[C@@]24OO3` has an IC50 [1] of 660 nM, an IC50 [2] of 0.9 nM and a selectivity ratio [3] of 733. It also gave an IC50 [4] of 0.8 nM.

Reference: ChEMBL document CHEMBL4190368, “Synthesis and antimalarial evaluation of artesunate-polyamine and trioxolane-polyamine conjugates” (Eur J Med Chem, 2017)
